In patent US20120010264A1, “NOVEL MEDICAMENT FOR TREATING COGNITIVE IMPAIRMENT” (Dainippon Sumitomo Pharma Co., Ltd., priority 2009, published 2012):
Read-outs that look alike come from different tables or passages of the source.

Columns and labels:
[1] = Brain delivery property: brain tissue and plasma concentration after oral administration; assay type: in vivo; settings: female, 10 mg/kg oral, one portion, C57BL/6J mouse; for Kp: brain and plasma, read-out: Kp value (brain/plasma AUC0-6 hr ratio); for half-life / AUC(0-t): non-fasting; for AUC(0-t): read-out: AUC0-6 hr
Method: Method: Compound A or rosiglitazone (10 mg/kg) was orally administered in one portion to a mouse (C57BL/6J: female, 11 weeks old, 3 mice at each measuring point) under non-fasting condition. Its brain tissue and plasma were sequentially sampled for 6 hours after the administration to measure the concentration of the administered-compound. Based on each mean value of the concentrations in its brain tissue and plasma measured at several time points, each elimination half-life (t1/2) and area under the curve (AUC0-6hr) of the administered-compound were calculated.

scavenger receptor CD36 = experiment: CD36 transcription level in microglial cells by real-time RT-PCR; assay type: cell-based; settings: 0.5 μM, 24 hours, neonatal rat microglial cells
Method: Microglial cells derived from neonatal rats (Sumitomo Bakelite) were cultured for 24 hours in a culture medium containing Compound A (0.5 μM or 5 μM). Then, total RNA was extracted from the cells, and therewith the transcription levels of scavenger receptor CD36 and glyceraldehyde-3-phosphate dehydrogenase (GAPDH) were measured by real-time RT-PCR to calculate the CD36 transcription level as a value relative to the GAPDH transcription level. In order to compare the CD36 transcription levels treated in the different conditions, CD36 transcription level in the control that was cultured for 24 hours with only DMSO which was used as a solvent in the above cultivation of Compound A was measured, and then the relative ratio of each CD36 transcription level of Compound A per that of the control (=1) was calculated.

[2] = system: LPS-induced cognitive impairment mouse; experiment: LPS-induced cognitive impairment model, Y-maze test (alternation behavior); assay type: in vivo; settings: LPS i.c.v., percentage of alternation behavior in Y-maze
Method: It is known that lipopolysaccharide (LPS) can experimentally induce an inflammatory condition in brain like in Alzheimer's dementia patients. Thus, LPS-induced model is thought as a good disease model to study cognitive impairment caused by inflammation in Alzheimer's dementia (Neurosci. Res., 61, 113, 2008).
In Example 4-2, 5 μg of LPS (Eschenchia coli 055:B5, SIGMA) was intracerebroventricularly administered to a mouse (Slc:ddY mouse, 4 weeks old, male, Japan SLC, Inc.) in both ventricles, i.e. 2.5 μl of 1 mg/ml LPS was administered to each ventricle. LPS induced cognitive impairment in Y-maze test was appeared 4 days after treatment. (i.e. decrease of alternation behavior). Compound A (10, 30, 100 mg/kg, p.o., n=14-16) or rosiglitazone (1, 3, 10 mg/kg, p.o., n=8) was administered 30 minutes before the LPS administration, and 1, 2, 3 days after the LPS administration, and also 1 hour before the Y-maze test to evaluate the effect for improving cognitive function. 0.5% Methylcellulose solution was used as a solvent of each compound.

[3] = system: rats with scopolamine-induced cognitive impairment; experiment: Scopolamine-induced cognitive impairment model, passive avoidance test; assay type: in vivo, rat; settings: for Step-through latency: scopolamine 0.5 mg/kg i.p., rat, mean ± standard error, n = 11, up to 300 seconds
Description: It is known that scopolamine is a muscarinic acetylcholine receptor antagonist which causes memory impairment in animals and human. Thus, in order to evaluate the efficacy of an anti-Alzheimer's drug, a scopolamine-induced cognitive-impairment model is used in many evaluation tests of cognitive function including a passive avoidance test (Eur. J. Pharmacol., 383, 231, 1999). In Example 6, the effect of Compound A and rosiglitazone on cognitive function was studied using a passive avoidance test using rats with scopolamine-induced cognitive impairment.
Compound A (3, 10, 30 mg/kg) or rosiglitazone (1, 3, 10 mg/kg) was orally administered to a rat 60 minutes before training for the passive avoidance test. Scopolamine (0.5 mg/kg) or saline was intraperitoneally administered 30 minutes before the training. In the training period, the rat was put in a bright compartment and was allowed to explore for 10 seconds. Then, a door between the bright compartment and the dark one was opened, and as the rat went into the dark compartment, the door was closed. Three seconds later, the rat was given electroconvulsive shock (0.5 mA, 3 seconds). The passive avoidance response test was carried out 24 hours after the training. The rat was put in the bright compartment and was monitored to record the time that the rat stayed in the bright compartment (step-through latency) for up to 300 seconds. Dunnett's multiple comparison test (two-sided significance level 5%) was carried out to compare the step-through latency between the scopolamine treatment group and the scopolamine+test medicament treatment group. […] 0.5% Methylcellulose solution was used as a solvent of each compound.

[4] = Fluid retention as side effect: hematocrit level in high-fat diet obese diabetes mice; settings: for Hematocrit level: high-fat diet mouse; for Effect on hematocrit level in mice (summary of Example 5): dose not stated
[5] = post-marketing surveillance; cited from earlier work
[6] = mouse, in vivo
[7] = 3 mg/kg oral once a day for 8 weeks
[8] = 10 mg/kg oral once a day for 8 weeks

Row | SMILES | Kp [1] | half-life ([1]; brain) [h] | AUC(0-t) ([1]; brain) [ng·h/mL] | half-life ([1]; plasma) [h] | AUC(0-t) ([1]; plasma) [ng·h/mL] | Alternation behavior ([2]; 10 mg/kg p.o.) | Step-through latency ([3]; 3 mg/kg p.o.) [s] | Hematocrit level [4, 7] [%] | Hematocrit level [4, 8] [%] | Effect on hematocrit level in mice (summary of Example 5) [4] | also measured
1 | Cc1ccc(C(=O)c2cccn2C/C=C/c2ccc(COC(C)(C)C(=O)O)cc2)cc1 [Compound A, 2-Methyl-2-[(4-{(1E)-3-[2-(4-methylbenzoyl)-1H-pyrrol-1-yl]prop-1-en-1-yl}benzyl)oxy]propionic acid] | 0.154 | 4.26 | 1500 | 4.59 | 9710 | 66.5 ± 2.8 | 162.5 ± 28.2 | 47.7 ± 2.0 | 48.7 ± 1.2 | did not significantly affect | CD36 transcription level relative to GAPDH, ratio per DMSO control (=1) (scavenger receptor CD36): 1.44; Effect on cognitive function (step-through latency) ([3]; single oral administration 3-30 mg/kg, scopolamine rat): improved cognitive function in a dose-dependent manner; Hematocrit level ([4]; 30 mg/kg oral once a day for 8 weeks): 48.7 ± 1.5%
2 | CN(CCOc1ccc(CC2SC(=O)NC2=O)cc1)c1ccccn1 (stereo not drawn) [Rosiglitazone, rosiglitazone] | 0.0451 | 1.06 | 1820 | 1.26 | 40400 | 73.4 ± 2.7 | 164.5 ± 33.1 | 44.7 ± 1.5 | 41.1 ± 4.9 | decreased | Alternation behavior ([2]; 1 mg/kg p.o.): 68.4 ± 5.0; Alternation behavior ([2]; 3 mg/kg p.o.): 71.9 ± 4.1; Step-through latency ([3]; 1 mg/kg p.o.): 144.8 ± 28.3 s; Step-through latency ([3]; 10 mg/kg p.o.): 170.7 ± 30.2 s; Frequency of fluid retention (peripheral edema) [5]: high; Hematocrit level ([4]; 0.1 mg/kg oral once a day for 8 weeks): 47.4 ± 1.9%; Hematocrit level ([4]; 0.3 mg/kg oral once a day for 8 weeks): 46.6 ± 1.9 %; Hematocrit level ([4]; 1 mg/kg oral once a day for 8 weeks): 45.6 ± 0.9 %; Change of hematocrit level vs solvent ([4]; dose of 0.3 mg/kg or more, oral once a day for 8 weeks): significantly decreased
3 | CCc1ccc(CCOc2ccc(CC3SC(=O)NC3=O)cc2)nc1 (stereo not drawn) [pioglitazone] |  |  |  |  |  |  |  |  |  |  | Effect on hematocrit level in mice (summary of Example 5) [6]: decreased
